According to ChEMBL document CHEMBL1201862, “PubChem BioAssay data set” (2004):
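How tested: cells in 96-well plates exposed to compound for 48 hours at five concentrations. At the GI50, growth is halved.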 The source made the active and inactive calls. Cut-off read from the data, not from the text of the source: active = GI50 up to about 1.1 µM and inactive = higher.

Legend:
Test in all cases: NCI tumour cell line growth inhibition, 48 h
A549 = test system: A549
786-0 = test system: 786-0
HCC 2998 = test system: HCC 2998
COLO 205 = test system: COLO 205
Hs-578T = test system: Hs-578T
SF-539 = test system: SF-539
HCT-116 = test system: HCT-116
SF-268 = test system: SF-268
SK-OV-3 = test system: SK-OV-3
CAKI-1 = test system: CAKI-1
SK-MEL-5 = test system: SK-MEL-5
SK-MEL-28 = test system: SK-MEL-28
UO-31 = test system: UO-31
ACHN = test system: ACHN
SW-620 = test system: SW-620
CCRF-CEM = test system: CCRF-CEM
SK-MEL-2 = test system: SK-MEL-2
RPMI-8226 = test system: RPMI-8226
HOP-92 = test system: HOP-92
OVCAR-4 = test system: OVCAR-4

With `O=C1NC2CCCCC2NC1=C(C(=O)c1ccccc1)C(=O)c1ccccc1` (stereo unspecified) the GI50 (A549) was 34 µM (inactive), the GI50 (786-0) was > 100 µM (inactive) and the GI50 (HCC 2998) was 70.8 µM (inactive). The GI50 (COLO 205) was 32.8 µM (inactive), the GI50 (Hs-578T) was 62.8 µM (inactive) and the GI50 (SF-539) was 43.2 µM (inactive). The GI50 (HCT-116) was 40.7 µM (inactive), the GI50 (SF-268) was 69.2 µM (inactive) and the GI50 (SK-OV-3) was 25.4 µM (inactive). The GI50 (CAKI-1) was 36.4 µM (inactive), the GI50 (SK-MEL-5) was 27.5 µM (inactive) and the GI50 (SK-MEL-28) was 78.2 µM (inactive). For the same compound, the GI50 (UO-31) was 26.9 µM (inactive), the GI50 (ACHN) was 33.6 µM (inactive) and the GI50 (SW-620) was 39.3 µM (inactive). The GI50 (CCRF-CEM) was 11 µM (inactive), the GI50 (SK-MEL-2) was 33.6 µM (inactive) and the GI50 (RPMI-8226) was 28.8 µM (inactive).

In the case of `Cc1c(S(=O)(=O)N/C(N)=N/c2ccc(Cl)cc2)sc2ccc(Cl)cc12`, the GI50 (A549) is reported as 19.1 µM (inactive), the GI50 (786-0) is reported as 17.1 µM (inactive) and the GI50 (HOP-92) is reported as 22.6 µM (inactive). For the same compound, the GI50 (COLO 205) was 17.2 µM (inactive), the GI50 (Hs-578T) was 21.7 µM (inactive) and the GI50 (SF-539) was 23.9 µM (inactive). The GI50 (HCT-116) was 15.9 µM (inactive), the GI50 (SF-268) was 17 µM (inactive) and the GI50 (SK-OV-3) was 26.1 µM (inactive). The GI50 (SK-MEL-5) was 33.6 µM (inactive), the GI50 (SK-MEL-28) was 21.4 µM (inactive) and the GI50 (UO-31) was 15.3 µM (inactive). For the same compound, the GI50 (ACHN) was 17 µM (inactive), the GI50 (SW-620) was 22 µM (inactive) and the GI50 (OVCAR-4) was 22.2 µM (inactive). For the same compound, the GI50 (SK-MEL-2) was 17.2 µM (inactive) and the GI50 (RPMI-8226) was 33.7 µM (inactive).

With `O=C(O)CCC1CCc2cccc3occ1c23` (stereo unspecified) the GI50 (A549) was > 100 µM (inactive), the GI50 (786-0) was > 100 µM (inactive) and the GI50 (HCC 2998) was > 100 µM (inactive). The GI50 (HOP-92) was > 100 µM (inactive), the GI50 (COLO 205) was > 100 µM (inactive) and the GI50 (SF-539) was > 100 µM (inactive). For the same compound, the GI50 (HCT-116) was > 100 µM (inactive), the GI50 (SF-268) was > 100 µM (inactive) and the GI50 (SK-OV-3) was > 100 µM (inactive). For the same compound, the GI50 (CAKI-1) was > 100 µM (inactive), the GI50 (SK-MEL-5) was > 100 µM (inactive) and the GI50 (SK-MEL-28) was > 100 µM (inactive). The GI50 (UO-31) was > 100 µM (inactive), the GI50 (ACHN) was > 100 µM (inactive) and the GI50 (SW-620) was > 100 µM (inactive). The GI50 (CCRF-CEM) was > 100 µM (inactive), the GI50 (OVCAR-4) was > 100 µM (inactive) and the GI50 (SK-MEL-2) was > 100 µM (inactive). The GI50 (RPMI-8226) was > 100 µM (inactive).

In the case of `COc1ccc(C(=O)N2c3ccccc3N(C)n3cccc3C2CC(=O)O)cc1` (stereo unspecified), the GI50 (A549) is reported as > 100 µM (inactive), the GI50 (786-0) is reported as > 100 µM (inactive) and the GI50 (HCC 2998) is reported as > 100 µM (inactive). For the same compound, the GI50 (HOP-92) was > 100 µM (inactive), the GI50 (COLO 205) was > 100 µM (inactive) and the GI50 (SF-539) was > 100 µM (inactive). The GI50 (SF-268) was > 100 µM (inactive), the GI50 (SK-OV-3) was > 100 µM (inactive) and the GI50 (CAKI-1) was > 100 µM (inactive). For the same compound, the GI50 (SK-MEL-5) was > 100 µM (inactive), the GI50 (SK-MEL-28) was > 100 µM (inactive) and the GI50 (UO-31) was > 100 µM (inactive). For the same compound, the GI50 (ACHN) was > 100 µM (inactive), the GI50 (SW-620) was > 100 µM (inactive) and the GI50 (CCRF-CEM) was > 100 µM (inactive). For the same compound, the GI50 (OVCAR-4) was > 100 µM (inactive), the GI50 (SK-MEL-2) was > 100 µM (inactive) and the GI50 (RPMI-8226) was > 100 µM (inactive).

With `O=C1c2ccc(O)cc2C(=O)c2ccc(O)cc21` the GI50 (A549) was 54.6 µM (inactive), the GI50 (786-0) was 42.7 µM (inactive) and the GI50 (HCC 2998) was 46.3 µM (inactive). The GI50 (HOP-92) was 63.1 µM (inactive), the GI50 (COLO 205) was > 100 µM (inactive) and the GI50 (SF-539) was 40.9 µM (inactive). For the same compound, the GI50 (HCT-116) was 39.4 µM (inactive), the GI50 (SF-268) was 55.3 µM (inactive) and the GI50 (SK-OV-3) was 33.2 µM (inactive). For the same compound, the GI50 (CAKI-1) was 32.9 µM (inactive), the GI50 (SK-MEL-5) was > 100 µM (inactive) and the GI50 (SK-MEL-28) was 78.5 µM (inactive). For the same compound, the GI50 (UO-31) was 24.3 µM (inactive), the GI50 (ACHN) was 36.9 µM (inactive) and the GI50 (SW-620) was 92.5 µM (inactive). For the same compound, the GI50 (CCRF-CEM) was 59.3 µM (inactive), the GI50 (OVCAR-4) was > 100 µM (inactive) and the GI50 (SK-MEL-2) was 45.7 µM (inactive). The GI50 (RPMI-8226) was 42.8 µM (inactive).

With `CCCCCCC1CC(=O)C1(Cl)Cl` (stereo unspecified) the GI50 (A549) was > 100 µM (inactive), the GI50 (786-0) was 15 µM (inactive) and the GI50 (HCC 2998) was 26.3 µM (inactive). For the same compound, the GI50 (Hs-578T) was 20 µM (inactive), the GI50 (SF-539) was 31.3 µM (inactive) and the GI50 (HCT-116) was 16.7 µM (inactive). For the same compound, the GI50 (SF-268) was 20.7 µM (inactive), the GI50 (SK-OV-3) was > 100 µM (inactive) and the GI50 (CAKI-1) was 18.9 µM (inactive). The GI50 (SK-MEL-5) was 17 µM (inactive), the GI50 (SK-MEL-28) was > 10 µM (inactive) and the GI50 (UO-31) was 19.4 µM (inactive). The GI50 (ACHN) was 18.3 µM (inactive), the GI50 (SW-620) was 19.6 µM (inactive) and the GI50 (CCRF-CEM) was 2.4 µM (inactive). The GI50 (OVCAR-4) was 29.1 µM (inactive), the GI50 (SK-MEL-2) was 30.9 µM (inactive) and the GI50 (RPMI-8226) was 0.377 µM (active).

With `CC(=O)OC1CC2c3cccc4c3C(CC2N(C)C1=O)CN4C(=O)c1ccccc1` (stereo unspecified) the GI50 (A549) was 17.5 µM (inactive), the GI50 (786-0) was 15.2 µM (inactive) and the GI50 (HCC 2998) was 15 µM (inactive). The GI50 (HOP-92) was 4.25 µM (inactive), the GI50 (COLO 205) was 23.3 µM (inactive) and the GI50 (SF-539) was 25.8 µM (inactive). The GI50 (HCT-116) was 17 µM (inactive), the GI50 (SF-268) was 2.2 µM (inactive) and the GI50 (SK-OV-3) was 22.7 µM (inactive). The GI50 (CAKI-1) was 23 µM (inactive), the GI50 (SK-MEL-5) was 14.4 µM (inactive) and the GI50 (SK-MEL-28) was 21.6 µM (inactive). The GI50 (UO-31) was 16 µM (inactive), the GI50 (ACHN) was 20 µM (inactive) and the GI50 (SW-620) was 23.4 µM (inactive). For the same compound, the GI50 (CCRF-CEM) was 20.7 µM (inactive), the GI50 (OVCAR-4) was 22.1 µM (inactive) and the GI50 (SK-MEL-2) was 20.5 µM (inactive). The GI50 (RPMI-8226) was 26.6 µM (inactive).

`Cc1cc2c(c(N)c1C)C(=O)c1ccccc1C2=O` was tested, and the GI50 (A549) was 26.3 µM (inactive), the GI50 (786-0) was 20.2 µM (inactive) and the GI50 (HCC 2998) was 40.6 µM (inactive). The GI50 (HOP-92) was 18 µM (inactive), the GI50 (COLO 205) was > 100 µM (inactive) and the GI50 (SF-539) was 12.5 µM (inactive). The GI50 (HCT-116) was 19 µM (inactive), the GI50 (SF-268) was 25.5 µM (inactive) and the GI50 (SK-OV-3) was 17.5 µM (inactive). The GI50 (CAKI-1) was 14.5 µM (inactive), the GI50 (SK-MEL-5) was 20.2 µM (inactive) and the GI50 (UO-31) was 10.6 µM (inactive). For the same compound, the GI50 (ACHN) was 14.1 µM (inactive), the GI50 (SW-620) was 59.7 µM (inactive) and the GI50 (CCRF-CEM) was > 100 µM (inactive). The GI50 (OVCAR-4) was 17.5 µM (inactive), the GI50 (SK-MEL-2) was 66.8 µM (inactive) and the GI50 (RPMI-8226) was 52.1 µM (inactive).
